Marks after values point to notes of the source that are not given here.
Experiments:
Type in all cases: in vivo
männlichen Mastküken [1] = test: Feeding trial with broiler chicks, Beispiel I (6 weeks); details: for Mortalität: 60480 min
From the text: Ein Fütterungsversuch mit Etamycin-Cu-Komplex gemäß Herstellungsbeispiel 2 wurde mit 120 männlichen Mastküken in 3 Gruppen zu je 40 Küken durchgeführt, die in beheizten Batterien (5 Küken bei 8 Wiederholungen) gehalten wurden. Folgende Präparate und Dosierungen wurden eingesetzt:
Das Grundfutter hatte eine handelsübliche Zusammensetzung mit 13,0 MJ/kg = 3100 kcal/kg und einem Rohproteingehalt von 22 %, bei einem normgerechten Aminosäuren-, Vitamin-, Mineralstoff- und Spurenelementgehalt.
(§1) Der Versuch lief über 6 Wochen. Futter und Trinkwasser wurden nach Belieben angeboten. Die Tiere wurden wöchentlich einzeln gewogen, die Lebendmasse(LM)-Zunahmen errechnet, die Futteraufnahme bestimmt und aus Futteraufnahme : LM-Zunahme der Futteraufwand errechnet. Die Mortalität wurde erfaßt und aus all diesen Parametern die Produktionszahl (PZ) errechnet. [formula]

[2] = system: männlichen Mastküken (Lohmann); test: Feeding trial with broiler chicks, Beispiel II (42 days)
From the text: as §1
In einem Mastküken-Versuch über 42 Tage wurde mit 144 männlichen Mastküken (Lohmann) 3 x 48 Küken (8 Wiederholungen x 6 Tiere) der Einfluß von Etamycin-Cu-Komplex gemäß Beispiel I in Dosierungen von 5 und 10 ppm gegenüber Negativ-Kontrollen ohne Zusatz geprüft. Haltung und Fütterung waren die gleichen wie in Beispiel I.

männlichen Mastküken [3] = test: Feeding trial with broiler chicks, Beispiel IV (5 weeks); details: for Mortalität: 50400 min
From the text: as §1
Mit 96 männlichen Mastküken wurde in 3 Gruppen zu je 32 Mastküken (4 Wiederholungen x 8 Tiere) über 5 Wochen der Einfluß des Etamycin-Mn-Komplexes gemäß Beispiel 10 in Dosierungen von 5 und 10 ppm im Vergleich zu einer Negativ-Kontrolle (ohne Zusatz) geprüft. Die Haltungs- und Fütterungsbedingungen sowie die Auswertung waren die gleichen wie in Beispiel I.

Mastküken = test: Feeding trial with broiler chicks, Beispiel III (6 weeks); details: 10 mg/kg Futter (ppm)
From the text: as §1
In einem weiteren Mastküken-Versuch wurde der Einfluß von Etamycin-Zn-Komplex gemäß Beispiel 4 in einer Dosierung von 10 ppm im Vergleich zu einer Negativ-Kontrolle wie im Beispiel I geprüft. Zum Einsatz kamen 36 Mastküken (6 Wiederholungen x 6 Tiere), bei einer Versuchszeit von 6 Wochen. Haltungs- und Fütterungsbedingungen waren die gleichen wie im Beispiel I.

[4] = 5 mg/kg Futter (ppm), Futteraufnahme : LM-Zunahme
[5] = 5 mg/kg Futter (ppm), control = 100
[6] = 20 mg/kg Futter (ppm), control = 100
[7] = 10 mg/kg Futter (ppm), Futteraufnahme : LM-Zunahme
[8] = 10 mg/kg Futter (ppm), control = 100

Etamycin-Kupfer-(II)-komplex (Et₂ x Cu(II)) [Etamycin-Cu-Komplex]
Futteraufnahme (männlichen Mastküken [1]; 5 mg/kg Futter (ppm)): 2561 g
LM-Zunahme (männlichen Mastküken [1]; 5 mg/kg Futter (ppm)): 1439 * g
Produktionszahl (männlichen Mastküken [1]; 5 mg/kg Futter (ppm)): 154
Mortalität (männlichen Mastküken [1]; 5 mg/kg Futter (ppm)): 20%
Futteraufwand (männlichen Mastküken [1]; [4]): 1,78
Futteraufnahme (männlichen Mastküken [1]; [5]): 101,2 rel.%
Futteraufwand (männlichen Mastküken [1]; [5]): 92,7 rel. %
LM-Zunahme (männlichen Mastküken [1]; [5]): 109,0 rel.%
Futteraufnahme (männlichen Mastküken [1]; 20 mg/kg Futter (ppm)): 2644 g
LM-Zunahme (männlichen Mastküken [1]; 20 mg/kg Futter (ppm)): 1442 * g
Produktionszahl (männlichen Mastküken [1]; 20 mg/kg Futter (ppm)): 173
Mortalität (männlichen Mastküken [1]; 20 mg/kg Futter (ppm)): 7,5%
Futteraufwand (männlichen Mastküken [1]; 20 mg/kg Futter (ppm), Futteraufnahme : LM-Zunahme): 1,83
Futteraufnahme (männlichen Mastküken [1]; [6]): 104,5 rel.%
Futteraufwand (männlichen Mastküken [1]; [6]): 95,3 rel. %
LM-Zunahme (männlichen Mastküken [1]; [6]): 109.2 rel.%
Futteraufnahme ([2]; 5 mg/kg Futter (ppm)): 3260 g
LM-Zunahme ([2]; 5 mg/kg Futter (ppm)): 1699 * g
Mortalität ([2]; 5 mg/kg Futter (ppm)): 2,1%
Produktionszahl ([2]; 5 mg/kg Futter (ppm)): 207
Futteraufwand [2, 4]: 1,92
Futteraufnahme [2, 5]: 106,3 rel.%
Futteraufwand [2, 5]: 97,5 rel. %
LM-Zunahme [2, 5]: 109,0 rel.%
Futteraufnahme ([2]; 10 mg/kg Futter (ppm)): 3099 g
LM-Zunahme ([2]; 10 mg/kg Futter (ppm)): 1673 * g
Mortalität ([2]; 10 mg/kg Futter (ppm)): 6,3%
Produktionszahl ([2]; 10 mg/kg Futter (ppm)): 202
Futteraufwand [2, 7]: 1,85
Futteraufnahme [2, 8]: 101,0 rel.%
Futteraufwand [2, 8]: 93,9 rel. %
LM-Zunahme [2, 8]: 107,3 rel.%

Etamycin-Mangan (II)-komplex Et₂ x Mn(II) [Etamycin-Mn-Komplex]
Futteraufnahme (männlichen Mastküken [3]; 5 mg/kg Futter (ppm)): 2334 g
LM-Zunahme (männlichen Mastküken [3]; 5 mg/kg Futter (ppm)): 1394 * g
Produktionszahl (männlichen Mastküken [3]; 5 mg/kg Futter (ppm)): 222
Mortalität (männlichen Mastküken [3]; 5 mg/kg Futter (ppm)): 0%
Futteraufwand (männlichen Mastküken [3]; [4]): 1,67
Futteraufnahme (männlichen Mastküken [3]; [5]): 100 rel.%
Futteraufwand (männlichen Mastküken [3]; [5]): 93,8 rel. %
LM-Zunahme (männlichen Mastküken [3]; [5]): 106,4 rel.%
Futteraufnahme (männlichen Mastküken [3]; 10 mg/kg Futter (ppm)): 2413 g
LM-Zunahme (männlichen Mastküken [3]; 10 mg/kg Futter (ppm)): 1419 * g
Produktionszahl (männlichen Mastküken [3]; 10 mg/kg Futter (ppm)): 222
Mortalität (männlichen Mastküken [3]; 10 mg/kg Futter (ppm)): 0%
Futteraufwand (männlichen Mastküken [3]; [7]): 1,70
Futteraufnahme (männlichen Mastküken [3]; [8]): 103,4 rel.%
Futteraufwand (männlichen Mastküken [3]; [8]): 95,5 rel. %
LM-Zunahme (männlichen Mastküken [3]; [8]): 108,3 rel.%

Etamycin-Zn(II)-komplex (Et₂ x Zn(II)) [Etamycin-Zn-Komplex]
Futteraufnahme (Mastküken): 3041 g
LM-Zunahme (Mastküken): 1748 * g
Produktionszahl (Mastküken): 228
Mortalität (Mastküken; 60480 min): 5,6%
Futteraufwand (Mastküken; Futteraufnahme : LM-Zunahme): 1,74
Futteraufnahme (Mastküken; control = 100): 102,5 rel.%
Futteraufwand (Mastküken; control = 100): 93,5 rel. %
LM-Zunahme (Mastküken; control = 100): 109,4 rel.%

From patent publication EP0302407A2, “Metallic complexes of streptogramin-B, their preparation and their use in animal food” (HOECHST AKTIENGESELLSCHAFT, priority 1987, dated 1989)
